Tests used:
KRAS G12D = molecular target: T1, KRAS G12D (Homo sapiens, UniProt P01116, G12D); test: KRAS G12D HiBit assay; format: cell-based; conditions: AsPc-1-KRAS (G12D)-HiBit-KI cell, compound treatment for 24 hours; for DC50: absolute DC50
T1 construct: AsPc-1-KRAS (G12D)-HiBit-KI cell (Pharmaron); host or cells: AsPc-1-KRAS (G12D)-HiBit-KI cells (HiBiT knock-in at the endogenous KRAS locus)
Method in brief: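 HiBiT luminescence, detected by adding lytic buffer, substrate and LgBiT protein, served as the KRAS G12D read-out. Compounds, serially diluted 3-fold over 10 points from 0.3 mM DMSO stock, were on cells for 24 h; percent inhibition normalized to cells given 0.1% DMSO only.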

KRAS G12V = molecular target: T2, KRAS G12V (Homo sapiens, UniProt P01116, G12V); test: KRAS G12V HiBit assay; format: cell-based; conditions: SW620-KRAS (G12V)-HiBit-KI cells, compound treatment for 24 hours, class symbols
T2 construct: SW620-KRAS (G12V)-HiBit-KI cell (Pharmaron); host or cells: SW620-KRAS (G12V)-HiBit-KI cells (HiBiT knock-in at the endogenous KRAS locus)
Procedure: Day 1. […] Rinsed cultivated cells in T-75 flasks with 5 mL PBS (Solarbio, P1020-500). […] Inactivated trypsin by adding excessive serum containing medium. Harvested the cells from flask into cell culture medium and counted the cell number.
Day 2. Test compounds were dissolved at 0.3 mM in DMSO (Solarbio, D8371) as stock solution. […] Performed 3-fold, 10-points dilution via transferring 15 μL compound into 30 μL DMSO by using TECAN liquid handler (TECAN, Freedom EVO200). […] After compound treatment for 24 hours, the plate was removed from incubators and equilibrated at room temperature for 15 minutes. Prepare the HiBit reagent (Promega, N3040) by mixing 10 mL of Nano-Glo®-HiBiT Lytic Buffer with 200 μL of Nano-Glo®-HiBiT Lytic Substrate and 100 μL of LgBiT Protein. Added 20 μL of HiBit reagent into each well of the cell plate and spun the plates at room temperature at 1,000 RPM for 1 minute.
The degradation activity was calculated using the following formula:
[formula] where HC (high control) is obtained from cells treated with 0.1% DMSO only.

[1] = numeric bounds given in place of class symbols

T1 sequence (P01116 1-188 isoform P01116-2 G12D): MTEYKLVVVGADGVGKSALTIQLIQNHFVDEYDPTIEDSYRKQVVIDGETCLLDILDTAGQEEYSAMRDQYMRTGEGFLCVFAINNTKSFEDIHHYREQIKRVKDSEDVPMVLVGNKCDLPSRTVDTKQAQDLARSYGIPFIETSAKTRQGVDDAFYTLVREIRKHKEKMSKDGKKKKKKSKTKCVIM
T2 sequence (P01116 1-188 isoform P01116-2 G12V): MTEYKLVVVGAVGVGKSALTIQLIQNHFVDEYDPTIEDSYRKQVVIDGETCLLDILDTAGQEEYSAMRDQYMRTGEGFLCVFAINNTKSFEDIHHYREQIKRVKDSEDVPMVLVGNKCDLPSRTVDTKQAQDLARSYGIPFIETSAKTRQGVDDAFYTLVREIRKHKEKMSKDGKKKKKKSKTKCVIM

| DC50 (KRAS G12D; class symbols) [nM] | DC50 (KRAS G12V) [nM] | Dmax (KRAS G12D; class symbols) [%] | DC50 (KRAS G12D; [1]) [nM] | SMILES |
| --- | --- | --- | --- | --- |
| > 300 | > 100 | – | – | C#Cc1c(F)ccc2cccc(-c3ncc4c(N5CCCC(C#N)CC5)nc(OC[C@@]56CCCN5[C@H](COC(=O)NCCOc5ccc7c(c5)n(C)c(=O)n7C5CCC(=O)NC5=O)CC6)nc4c3F)c12 (stereo partly drawn) [Compound 116, ((3S,7aS)-7a-(((4-(4-cyanoazepan-1-yl)-7-(8-ethynyl-7-fluoronaphthalen-1-yl)-8-fluoropyrido[4,3-d]pyrimidin-2-yl)oxy)methyl)hexahydro-1H-pyrrolizin-3-yl)methyl (2-((1-(2,6-dioxopiperidin-3-yl)-3-methyl-2-oxo-2,3-dihydro-1H-benzo[d]imidazol-5-yl)oxy)ethyl) carbamate] |
| < 100 | > 100 | – | – | C#Cc1c(F)ccc2cc(O)cc(-c3ncc4c(N5CCC[C@@](C)(O)C5)nc(OCC5(CN6CC7(C6)CN(c6ccc8c(c6)n(C)c(=O)n8C6CCC(=O)NC6=O)C7)CC5)nc4c3F)c12 (some centres unmarked) [Compound 51] |
| > 300 | > 100 | 15 to 50 | – | C[C@H]1CN(CC(=O)N2CCC(CN3CCC(c4ccc5c(c4)n(C)c(=O)n5C4CCC(=O)NC4=O)CC3)CC2)CCCN1c1nccc(-c2noc([C@@]3(C)CCCc4sc(N)c(C#N)c43)n2)n1 (stereo partly drawn) [Compound 210, (4S)-2-amino-4-(3-{2-[(2S)-4-{2-[4-({4-[1-(2,6-dioxopiperidin-3-yl)-3-methyl-2-oxo-1,3-benzodiazol-5-yl]piperidin-1-yl}methyl)piperidin-1-yl]-2-oxoethyl}-2-methyl-1,4-diazepan-1-yl]pyrimidin-4-yl}-1,2,4-oxadiazol-5-yl)-4-methyl-6,7-dihydro-5H-1-benzothiophene-3-carbonitrile] |
| > 300 | > 100 | – | – | C#Cc1c(F)ccc2cccc(-c3ncc4c(N5CCC[C@@](C)(O)C5)nc(OCC5(CN6CCC(CN7CCN(c8cccc9c8n(C)c(=O)n9C8CCC(=O)NC8=O)CC7)CC6)CC5)nc4c3F)c12 (some centres unmarked) [Compound 73] |
| > 300 | > 100 | – | – | C#Cc1c(F)ccc2cc(O)cc(-c3ncc4c(N5CCC[C@@](C)(O)C5)nc(OCC5(CN6CCN(Cc7cccc8c7n(C)c(=O)n8C7CCC(=O)NC7=O)CC6)CC5)nc4c3F)c12 (some centres unmarked) [Compound 63] |
| > 300 | > 100 | 15 to 50 | – | CCc1c(F)ccc2cccc(-c3ncc4c(N5CCC[C@@](C)(O)C5)nc(OC[C@@]56CCCN5[C@H](COC(=O)NCCOCCOCCOCCOc5ccc7c(c5)n(C)c(=O)n7C5CCC(=O)NC5=O)CC6)nc4c3F)c12 (stereo partly drawn) [Compound 105, ((3S,7aS)-7a-(((7-(8-ethyl-7-fluoronaphthalen-1-yl)-8-fluoro-4-((R)-3-hydroxy-3-methylpiperidin-1-yl)pyrido[4,3-d]pyrimidin-2-yl)oxy)methyl)hexahydro-1H-pyrrolizin-3-yl)methyl (2-(2-(2-(2-((1-(2,6-dioxopiperidin-3-yl)-3-methyl-2-oxo-2,3-dihydro-1H-benzo[d]imidazol-5-yl)oxy)ethoxy)ethoxy)ethoxy)ethyl) carbamate] |
| < 100 | < 10 | – | – | CCc1c(F)ccc2cc(O)cc(-c3ncc4c(N5CCC[C@@](C)(O)C5)nc(OC[C@@]56CCCN5[C@H](COC(=O)N5CCC7(CC5)CN(C5CCN(c8ccc9c(c8)n(C)c(=O)n9C8CCC(=O)NC8=O)CC5)C7)CC6)nc4c3F)c12 (stereo partly drawn) [Compound 463, ((3S,7aS)-7a-(((7-(8-ethyl-7-fluoro-3-hydroxynaphthalen-1-yl)-8-fluoro-4-((R)-3-hydroxy-3-methylpiperidin-1-yl)pyrido[4,3-d]pyrimidin-2-yl)oxy)methyl)hexahydro-1H-pyrrolizin-3-yl)methyl 2-(1-(1-(2,6-dioxopiperidin-3-yl)-3-methyl-2-oxo-2,3-dihydro-1H-benzo[d]imidazol-5-yl)piperidin-4-yl)-2,7-diazaspiro[3.5]nonane-7-carboxylate] |
| < 100 | < 10 | – | – | CCc1c(F)ccc2cc(O)cc(-c3ncc4c(N5CCC[C@H](O)C5)nc(OC[C@@]56CCCN5[C@H](COC(=O)N5CCC7(CC5)CC(N5CCC(c8ccc9c(c8)n(C)c(=O)n9C8CCC(=O)NC8=O)CC5)C7)CC6)nc4c3F)c12 (stereo partly drawn) [Compound 354, ((3S,7aS)-7a-(((7-(8-ethyl-7-fluoro-3-hydroxynaphthalen-1-yl)-8-fluoro-4-((S)-3-hydroxypiperidin-1-yl)pyrido[4,3-d]pyrimidin-2-yl)oxy)methyl)hexahydro-1H-pyrrolizin-3-yl)methyl 2-(4-(1-(2,6-dioxopiperidin-3-yl)-3-methyl-2-oxo-2,3-dihydro-1H-benzo[d]imidazol-5-yl)piperidin-1-yl)-7-azaspiro[3.5]nonane-7-carboxylate] |
| < 100 | < 10 | – | – | CCc1c(F)ccc2cc(O)cc(-c3ncc4c(N5CCC[C@@H]5CO)nc(OC[C@@]56CCCN5[C@H](COC(=O)N5CCC7(CC5)CC(N5CCC(c8ccc9c(c8)n(C)c(=O)n9C8CCC(=O)NC8=O)CC5)C7)CC6)nc4c3F)c12 (stereo partly drawn) [Compound 352, ((3S,7aS)-7a-(((7-(8-ethyl-7-fluoro-3-hydroxynaphthalen-1-yl)-8-fluoro-4-((R)-2-(hydroxymethyl)pyrrolidin-1-yl)pyrido[4,3-d]pyrimidin-2-yl)oxy)methyl)hexahydro-1H-pyrrolizin-3-yl)methyl 2-(4-(1-(2,6-dioxopiperidin-3-yl)-3-methyl-2-oxo-2,3-dihydro-1H-benzo[d]imidazol-5-yl)piperidin-1-yl)-7-azaspiro[3.5]nonane-7-carboxylate] |
| – | > 100 | – | > 100 | C#Cc1c(F)ccc2cccc(-c3ncc4c(N5CCC[C@@](C)(O)C5)nc(OC[C@@]56CCCN5[C@H](COC(=O)N5CCC(N7CCC(c8cccc9c8n(C)c(=O)n9C8CCC(=O)NC8=O)CC7)CC5)CC6)nc4c3F)c12 (some centres unmarked) [Compound 147] |
| > 300 | > 100 | 15 to 50 | – | CCc1c(F)ccc2cccc(-c3ncc4c(N5CCC[C@@](C)(O)C5)nc(OC[C@@]56CCCN5[C@H](COC(=O)NCCOCCOCCOc5ccc7c(c5)n(C)c(=O)n7C5CCC(=O)NC5=O)CC6)nc4c3F)c12 (stereo partly drawn) [Compound 104, ((3S,7aS)-7a-(((7-(8-ethyl-7-fluoronaphthalen-1-yl)-8-fluoro-4-((R)-3-hydroxy-3-methylpiperidin-1-yl)pyrido[4,3-d]pyrimidin-2-yl)oxy)methyl)hexahydro-1H-pyrrolizin-3-yl)methyl (2-(2-(2-((1-(2,6-dioxopiperidin-3-yl)-3-methyl-2-oxo-2,3-dihydro-1H-benzo[d]imidazol-5-yl)oxy)ethoxy)ethoxy)ethyl) carbamate] |
| > 300 | > 100 | – | – | C#Cc1c(F)ccc2cccc(-c3ncc4c(N5CCC[C@@](C)(O)C5)nc(OC[C@@]56CCCN5[C@H](COC(=O)N5CC(OCC7CCN(c8ccc9c(c8)n(C)c(=O)n9C8CCC(=O)NC8=O)CC7)C5)CC6)nc4c3F)c12 (stereo partly drawn) [Compound 130, ((3S,7aS)-7a-(((7-(8-Ethynyl-7-fluoronaphthalen-1-yl)-8-fluoro-4-((R)-3-hydroxy-3-methylpiperidin-1-yl)pyrido[4,3-d]pyrimidin-2-yl)oxy)methyl)hexahydro-1H-pyrrolizin-3-yl)methyl 3-((1-(1-(2,6-dioxopiperidin-3-yl)-3-methyl-2-oxo-2,3-dihydro-1H-benzo[d]imidazol-5-yl)piperidin-4-yl)methoxy) azetidine-1-carboxylate] |
| – | > 100 | – | > 160 | C#Cc1c(F)ccc2cccc(-c3ncc4c(N5CCC[C@@](C)(O)C5)nc(OCC5(CN6CCC(CN7CCN(c8ccc9c(c8)C(=O)N(C8CCC(=O)NC8=O)C9=O)CC7)CC6)CC5)nc4c3F)c12 (some centres unmarked) [Compound 49] |
| > 300 | > 100 | < 15 | – | C[C@H]1CN(CC(=O)N2CCC(CN3CCC(c4ccc5c(c4)n(C)c(=O)n5C4CCC(=O)NC4=O)CC3)CC2)CCCN1c1nccc(-c2noc([C@]3(C)CCCc4sc(N)c(C#N)c43)n2)n1 (stereo partly drawn) [Compound 211, (4R)-2-amino-4-(3-{2-[(2S)-4-{2-[4-({4-[1-(2,6-dioxopiperidin-3-yl)-3-methyl-2-oxo-1,3-benzodiazol-5-yl]piperidin-1-yl}methyl)piperidin-1-yl]-2-oxoethyl}-2-methyl-1,4-diazepan-1-yl]pyrimidin-4-yl}-1,2,4-oxadiazol-5-yl)-4-methyl-6,7-dihydro-5H-1-benzothiophene-3-carbonitrile] |

— patent US12599672B2, “KRAS proteolysis targeting chimeras” (PAQ Therapeutics Inc., priority 2023, dated 2026)
